Data taken from PubChem BioAssay AID1963433 (Molecular Pharmacology Branch, DTP, NCI, 2024).

Test system: 772245-204-R-J1-PDC complex spheroid growth
Test: Anticancer human tumor 772245-204-R-J1-PDC patient-derived rhabdomyosarcoma cell line growth inhibition [Asc]
Settings: for IC50: curve of first compound; for viability, T/C: stronger effect = lower value
Procedure, shortened: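 Tumor cells were grown as complex spheroids with human endothelial cells (HUVEC) and human mesenchymal stem cells as stroma. Agents were tested alone and in combination, in half-log steps down from the clinical Cmax, or from 10 microM where Cmax was unknown.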

[1] = second compound 0.01 µM, first compound 0.00316 µM
[2] = second compound 0.01 µM, first compound 0.01 µM
[3] = second compound 0.01 µM, first compound 0.0316 µM
[4] = second compound 0.01 µM, first compound 0.1 µM
[5] = second compound 0.01 µM, first compound 0.316 µM
[6] = second compound 0.01 µM, first compound 1 µM
[7] = second compound 0.0316 µM, first compound 0.00316 µM
[8] = second compound 0.0316 µM, first compound 0.01 µM
[9] = second compound 0.0316 µM, first compound 0.0316 µM
[10] = second compound 0.0316 µM, first compound 0.1 µM
[11] = second compound 0.0316 µM, first compound 0.316 µM
[12] = second compound 0.0316 µM, first compound 1 µM
[13] = second compound 0.1 µM, first compound 0.00316 µM
[14] = second compound 0.1 µM, first compound 0.01 µM
[15] = second compound 0.1 µM, first compound 0.0316 µM
[16] = second compound 0.1 µM, first compound 0.1 µM
[17] = second compound 0.1 µM, first compound 0.316 µM
[18] = second compound 0.1 µM, first compound 1 µM
[19] = second compound 0.316 µM, first compound 0.00316 µM
[20] = second compound 0.316 µM, first compound 0.01 µM
[21] = second compound 0.316 µM, first compound 0.0316 µM
[22] = second compound 0.316 µM, first compound 0.1 µM
[23] = second compound 0.316 µM, first compound 0.316 µM
[24] = second compound 0.316 µM, first compound 1 µM
[25] = second compound 1 µM, first compound 0.00316 µM
[26] = second compound 1 µM, first compound 0.01 µM
[27] = second compound 1 µM, first compound 0.0316 µM
[28] = second compound 1 µM, first compound 0.1 µM
[29] = second compound 1 µM, first compound 0.316 µM
[30] = second compound 1 µM, first compound 1 µM
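Also: compound exposure lasted seven days.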
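For viability, T/C in this document: 100% = DMSO vehicle control viability.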

CCN1CCN(Cc2ccc(Nc3ncc(F)c(-c4cc(F)c5nc(C)n(C(C)C)c5c4)n3)nc2)CC1 + CNC(C)C(=O)NC1CN(S(=O)(=O)c2cccc(S(=O)(=O)N3CCC4CCC(C(=O)NC(c5ccccc5)c5ccccc5)N4C(=O)C(NC(=O)C(C)NC)C3)c2)CCC2CCC(C(=O)NC(c3ccccc3)c3ccccc3)N2C1=O
IC50 (second compound 0.01 µM): > 1000 nM | IC50 (second compound 0.0316 µM): > 1000 nM | IC50 (second compound 0.1 µM): > 1000 nM | IC50 (second compound 0.316 µM): > 1000 nM | IC50 (second compound 1 µM): > 1000 nM | viability, T/C [1]: 104% | viability, T/C [2]: 94.3% | viability, T/C [3]: 90.8% | viability, T/C [4]: 99.8% | viability, T/C [5]: 106% | viability, T/C [6]: 108% | viability, T/C [7]: 85.3% | viability, T/C [8]: 95.3% | viability, T/C [9]: 96% | viability, T/C [10]: 94% | viability, T/C [11]: 102% | viability, T/C [12]: 103% | viability, T/C [13]: 82.3% | viability, T/C [14]: 89.9% | viability, T/C [15]: 85.8% | viability, T/C [16]: 104% | viability, T/C [17]: 104% | viability, T/C [18]: 115% | viability, T/C [19]: 103% | viability, T/C [20]: 94.1% | viability, T/C [21]: 96.1% | viability, T/C [22]: 89.4% | viability, T/C [23]: 92.8% | viability, T/C [24]: 104% | viability, T/C [25]: 87.8% | viability, T/C [26]: 94.3% | viability, T/C [27]: 102% | viability, T/C [28]: 98.8% | viability, T/C [29]: 105% | viability, T/C [30]: 104%

NC(=O)C(=Cn1cnc(-c2cc(C(F)(F)F)cc(C(F)(F)F)c2)n1)c1cncnc1 + CNC(C)C(=O)NC1CN(S(=O)(=O)c2cccc(S(=O)(=O)N3CCC4CCC(C(=O)NC(c5ccccc5)c5ccccc5)N4C(=O)C(NC(=O)C(C)NC)C3)c2)CCC2CCC(C(=O)NC(c3ccccc3)c3ccccc3)N2C1=O
IC50 (second compound 0.01 µM): > 300 nM | IC50 (second compound 0.0316 µM): > 300 nM | IC50 (second compound 0.1 µM): > 300 nM | IC50 (second compound 0.316 µM): > 300 nM | IC50 (second compound 1 µM): > 300 nM | viability, T/C (second compound 0.01 µM, first compound 0.000949 µM): 96.8% | viability, T/C (second compound 0.01 µM, first compound 0.003 µM): 107% | viability, T/C (second compound 0.01 µM, first compound 0.00949 µM): 100% | viability, T/C (second compound 0.01 µM, first compound 0.03 µM): 84.2% | viability, T/C (second compound 0.01 µM, first compound 0.0949 µM): 62.2% | viability, T/C (second compound 0.01 µM, first compound 0.3 µM): 68.5% | viability, T/C (second compound 0.0316 µM, first compound 0.000949 µM): 92.9% | viability, T/C (second compound 0.0316 µM, first compound 0.003 µM): 114% | viability, T/C (second compound 0.0316 µM, first compound 0.00949 µM): 100% | viability, T/C (second compound 0.0316 µM, first compound 0.03 µM): 77.2% | viability, T/C (second compound 0.0316 µM, first compound 0.0949 µM): 88.7% | viability, T/C (second compound 0.0316 µM, first compound 0.3 µM): 67.3% | viability, T/C (second compound 0.1 µM, first compound 0.000949 µM): 97.8% | viability, T/C (second compound 0.1 µM, first compound 0.003 µM): 98.9% | viability, T/C (second compound 0.1 µM, first compound 0.00949 µM): 91.9% | viability, T/C (second compound 0.1 µM, first compound 0.03 µM): 80.9% | viability, T/C (second compound 0.1 µM, first compound 0.0949 µM): 57.3% | viability, T/C (second compound 0.1 µM, first compound 0.3 µM): 71.7% | viability, T/C (second compound 0.316 µM, first compound 0.000949 µM): 95.3% | viability, T/C (second compound 0.316 µM, first compound 0.003 µM): 97.2% | viability, T/C (second compound 0.316 µM, first compound 0.00949 µM): 86.2% | viability, T/C (second compound 0.316 µM, first compound 0.03 µM): 77.8% | viability, T/C (second compound 0.316 µM, first compound 0.0949 µM): 62% | viability, T/C (second compound 0.316 µM, first compound 0.3 µM): 69.3% | viability, T/C (second compound 1 µM, first compound 0.000949 µM): 99.2% | viability, T/C (second compound 1 µM, first compound 0.003 µM): 97.2% | viability, T/C (second compound 1 µM, first compound 0.00949 µM): 94.4% | viability, T/C (second compound 1 µM, first compound 0.03 µM): 102% | viability, T/C (second compound 1 µM, first compound 0.0949 µM): 78.3% | viability, T/C (second compound 1 µM, first compound 0.3 µM): 56.7%

O=C(c1ccc(F)c(F)c1Nc1ccc(I)cc1F)N1CC(O)([C@@H]2CCCCN2)C1 + CNC(C)C(=O)NC1CN(S(=O)(=O)c2cccc(S(=O)(=O)N3CCC4CCC(C(=O)NC(c5ccccc5)c5ccccc5)N4C(=O)C(NC(=O)C(C)NC)C3)c2)CCC2CCC(C(=O)NC(c3ccccc3)c3ccccc3)N2C1=O
IC50 (second compound 0.01 µM): > 1000 nM | IC50 (second compound 0.0316 µM): > 1000 nM | IC50 (second compound 0.1 µM): > 1000 nM | IC50 (second compound 0.316 µM): > 1000 nM | IC50 (second compound 1 µM): > 1000 nM | viability, T/C [1]: 93.1% | viability, T/C [2]: 85.4% | viability, T/C [3]: 93.3% | viability, T/C [4]: 84.8% | viability, T/C [5]: 97.9% | viability, T/C [6]: 105% | viability, T/C [7]: 98.3% | viability, T/C [8]: 90.7% | viability, T/C [9]: 95.2% | viability, T/C [10]: 93.2% | viability, T/C [11]: 101% | viability, T/C [12]: 95.4% | viability, T/C [13]: 93.3% | viability, T/C [14]: 84.8% | viability, T/C [15]: 90.1% | viability, T/C [16]: 87.6% | viability, T/C [17]: 103% | viability, T/C [18]: 77.9% | viability, T/C [19]: 91.7% | viability, T/C [20]: 88.1% | viability, T/C [21]: 96.8% | viability, T/C [22]: 99.8% | viability, T/C [23]: 103% | viability, T/C [24]: 112% | viability, T/C [25]: 100% | viability, T/C [26]: 89.7% | viability, T/C [27]: 88.8% | viability, T/C [28]: 92% | viability, T/C [29]: 94.5% | viability, T/C [30]: 97.6%
